# Assay results: patent publication US11142524B2, “Substituted-3H-imidazo[4,5-c]pyridine and 1H-pyrrolo[2,3-c]pyridine series of novel Ectonucleotide Pyrophosphatase/Phosphodiesterase-1 (ENPP1) and stimulator for interferon genes (STING) modulators as cancer immunotherapeutics” (Stingray Therapeutics, Inc., priority 2018, dated 2021)
# Where a name gives a salt, the structure may show the parent alone. Read-outs that look alike come from different tables or passages of the source.
# Assays:
# [1] = target: T1, Recombinant Human ENPP-1 Protein (purified in-house) (Homo sapiens (Human), UniProt P22413); test: ENPP1 Assay (TMP), Example 2; assay type: biochemical
# Description: Enzyme: 1 ng/μL Recombinant Human ENPP-1 Protein (purified in-house)—Assay Conc.: 5 ng/well of DMSO in 96-well clear assay plates.
# (§1) A ten point serial dilution of drugs was prepared in 10× in assay buffer with the final assay concentrations starting at 10 μM, 3 μM, 1 μM, 0.3 μM . . . 0 μM. A dilution of DMSO was included as a control. The assay plate was set up as follows with each well in duplicate: 75 μL assay buffer+10 μL ENPP1 inhibitor or DMSO Dilutions+10 μL Substrate+5 μL Enzyme (5 ng). Both the enzyme and substrate were added to opposite sides of the well to ensure that there was no interaction until all wells had both components. The plate was then centrifuged gently for 10 seconds, followed by an incubation at 37° C. for 45 minutes. The reaction was quantified by measuring absorbance at 405 nm using the Envision Plate Reader.
# ENPP1 protein [2] = target: T2, ENPP1 protein (Homo sapiens (Human), UniProt P22413); test: ENPP1 Inhibition Assay (thymidine 5′-monophosphate p-nitrophenol ester substrate); assay type: biochemical
# Description: Assay Buffer: 1 mM CaCl2, 0.2 mM ZnCl2, 50 mM Tris, pH 9.0. Substrate: 8 mM Thymidine 5′-monophosphate p-nitrophenol ester sodium salt (Sigma Cat #T4510). Enzyme: 5 ng/L Recombinant Human ENPP-1 Protein (R&D Cat #6136-EN-010) in DMSO in 96-well clear assay plates
# as §1, with “An eight” for “A ten”, “81” for “75”, “DMSO+5” for “DMSO Dilutions+10”, “Substrate+4” for “Substrate+5”, “Enzyme.” for “Enzyme (5 ng).”, “Envision.” for “Envision Plate Reader.”
# IC50 values are determined using GraphPad Prism 5 software. The data were entered as an X-Y plot into the software as percent inhibition for each concentration of the drug. The concentration values of the drug were log transformed and the nonlinear regression was carried out using the “sigmoidal dose-response (variable slope)” option within the GraphPad software to model the data and calculate IC50 values. The IC50 values reported are the concentration of drug at which 50% inhibition was reached.
# [3] = target: T1, Recombinant Human ENPP-1 Protein (purified in-house); test: ENPP1 Assay (ATP), Example 2; assay type: biochemical
# Description: Assay Buffer: 1 mM CaCl2, 0.2 mM ZnCl2, 50 mM Tris, pH 9.0. Substrate: 100 μM Adenosine 5′-triphosphate disodium salt hydrate (Promega: V703A)—Assay Conc.: 10 μM. Enzyme: 1 ng/μL Recombinant Human ENPP-1 Protein (purified in-house)—Assay Conc.: 5 ng/well of DMSO in 96-well white assay plates. Cell Titer Glo (Promega, cat #G7572).
# as §1, with “by” for “by an”, “RT” for “37° C.”, “20 minutes. To detect levels of ATP, Cell Titer Glo was added 1:1 to each well and incubated for 10” for “45”, “luminescence” for “absorbance at 405 nm”
# Saos-2 Cells = test: ENPP1 Mineralization Assay; assay type: cell-based
# Description: Saos-2 Cells (ATCC CAT #HTB-85). Culture Medium. 24-well Tissue Culture Plate. Ascorbic Acid, 5 mg/mL (100×). β-Glycerophosphate, 1M (100×). Phosphate Buffered Saline. Alizarin Red, 40 mM pH 4.2. 70% Ethanol. Dye Extraction Reagent, 10% Methanol+10% Acetic Acid
# Saos-2 cells were plated at a density of 1.5×10^6 cells/well and allowed to grow to 100% confluency over the following 1-2 days. Once completely confluent, the media was replaced with fresh media supplemented with 1× ascorbic acid, 1× β-glycerophosphate, and varying concentrations of ENPP1 inhibitor (if applicable). The addition of the mineralization components was considered Day 1. On Day 3, the media was gently aspirated with no wash followed by the addition of fresh media, mineralization components, and ENPP1 inhibitor (if applicable). On day 5, the media was gently aspirated and the cells were washed twice with PBS. The cells were then fixed with ice cold 70% ethanol for 1 hour at 4° C. Cells were washed once with PBS and stained with Alizarin Red for 30 minutes at room temperature with gentle rotation. Stained cells were washed three times with water for 10 minutes at room temperature with gentle rotation. After imaging cells, dye extraction reagent was added to each well and incubated for 30 minutes at room temperature. Alizarin red was quantified by measuring absorbance at a wavelength of 405 nm using the Envision.
# FIG. 9 depicts a picture of results of a similar SAOS-2 mineralization assay. SAOS-2 cell were cultured in the presence and absence of ENPP1 inhibitor (compound 78, 107-02 or 108) and exposed to mineralization components for 3 days.
# ENPP1 protein [4] = target: T2, ENPP1 protein; test: ENPP1 Thermal Shift Assay (Example 1); assay type: binding
# Description: Assay Buffer (1 mM CaCl2, 0.2 mM ZnCl2, 50 mM Tris, pH 9.0) 5000×SYPRO Orange (ThermoFisher cat #S6651) 384-well PCR Plates
# Each drug was prepared as a 10× solution in the assay buffer and SYPRO Orange was diluted to 10× concentration in water. Wells were set up in duplicate in a 384-well PCR plate as follows: 14 μL assay buffer, 2 μL ENPP1 Inhibitor or DMSO, 2 μL (0.5 μg) ENPP1 protein. Each well was mixed and incubated on ice for 5 minutes. Post incubation, 2 μL of SYPRO Orange was mixed into each well and followed by a gentle centrifugation. The protein melt reaction was run using ViiA7 software with temperatures beginning at 25° C. and increasing by 0.05° C./s to the maximum temperature of 99° C.
# In a 384-well plate, 1.0 μg of ENPP1 protein incubated with 100 μM of the corresponding drug for 5 minutes. Each well exposed to increasing temperatures to determine an unfolding temperature of the protein.
# [5] = Table 5, TMP substrate, read-out: ENPP1 (IC50 μM) TMP
# [6] = Table 5, ATP substrate, read-out: ENPP1 (IC50 μM) ATP
# [7] = FIG. 5A, TMP substrate, read-out: IC50
# [8] = FIG. 5B, ATP substrate, read-out: IC50
# T1 sequence (P22413 whole entry, looked up): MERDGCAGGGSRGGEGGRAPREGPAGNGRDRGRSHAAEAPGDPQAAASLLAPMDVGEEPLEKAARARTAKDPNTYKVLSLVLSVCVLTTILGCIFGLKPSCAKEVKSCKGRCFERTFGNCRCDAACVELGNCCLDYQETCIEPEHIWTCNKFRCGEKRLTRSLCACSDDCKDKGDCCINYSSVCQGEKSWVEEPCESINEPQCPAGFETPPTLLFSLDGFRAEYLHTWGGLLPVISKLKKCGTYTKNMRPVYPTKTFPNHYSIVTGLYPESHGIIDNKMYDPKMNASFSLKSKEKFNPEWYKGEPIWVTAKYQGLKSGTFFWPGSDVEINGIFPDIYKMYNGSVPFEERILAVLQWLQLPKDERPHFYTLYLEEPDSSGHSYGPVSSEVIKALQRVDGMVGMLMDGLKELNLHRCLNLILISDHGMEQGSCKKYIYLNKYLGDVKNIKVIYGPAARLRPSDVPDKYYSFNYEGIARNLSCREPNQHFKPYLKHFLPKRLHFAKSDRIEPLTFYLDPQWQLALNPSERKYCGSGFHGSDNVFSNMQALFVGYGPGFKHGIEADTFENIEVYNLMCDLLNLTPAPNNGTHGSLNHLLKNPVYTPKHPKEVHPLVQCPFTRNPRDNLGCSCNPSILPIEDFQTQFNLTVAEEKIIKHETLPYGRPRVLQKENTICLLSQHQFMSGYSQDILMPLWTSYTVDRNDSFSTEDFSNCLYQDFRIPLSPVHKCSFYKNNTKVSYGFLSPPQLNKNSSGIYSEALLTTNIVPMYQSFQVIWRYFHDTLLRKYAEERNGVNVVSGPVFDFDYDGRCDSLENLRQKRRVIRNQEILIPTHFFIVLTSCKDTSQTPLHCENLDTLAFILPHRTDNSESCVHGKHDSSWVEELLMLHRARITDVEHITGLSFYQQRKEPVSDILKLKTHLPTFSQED
# T2 sequence (P22413 whole entry, looked up, change not shown): as the sequence (P22413 whole entry, looked up) above
"IC50 [1, 5]",SMILES,"IC50 [3, 6]",also measured
22.3 µM,"COc1ccc(NC(=O)CSc2nc3c(C)c(C#N)ncc3[nH]2)cc1OCC1CCN(C)CC1 [Compound 111, 2-((6-cyano-7-methyl-3H-imidazo[4,5-c]pyridin-2-yl)thio)-N-(4-methoxy-3-((1-methylpiperidin-4-yl)methoxy)phenyl)acetamide hydrochloride]",–,–
–,"O=C(CSc1nc2cc(Cl)ncc2[nH]1)Nc1ccc2c(c1)OCO2 [Compound 7, N-(benzo[d][1,3]dioxol-5-yl)-2-((6-chloro-1H-imidazo[4,5-c]pyridin-2-yl)thio)acetamide]",–,"IC50 (ENPP1 protein [2]; Tables 3 and 4, read-out: ENPP1 inhibition (IC50)): > 50 µM"
22.2 µM,"COc1ccc(NC(=O)CSc2nc3c(C)c(C#N)ncc3[nH]2)cc1O[C@H]1CC[C@H](N)CC1 [Compound 113, N-(3-(((1r,4r)-4-aminocyclohexyl)oxy)-4-methoxyphenyl)-2-((6-cyano-7-methyl-3H-imidazo[4,5-c]pyridin-2-yl)thio)acetamide Hydrochloride]",–,–
> 50 µM,"Cc1c(C#N)ncc2[nH]c(SCC(=O)Nc3ccc(F)c(OCCO)c3)nc12 [Compound 110, 2-((6-cyano-7-methyl-3H-imidazo[4,5-c]pyridin-2-yl)thio)-N-(4-fluoro-3-(2-hydroxyethoxy)phenyl)acetamide]",–,–
3.61 µM,"COc1ccc(NC(=O)CSc2nc3c(C)c(C#N)ncc3[nH]2)cc1OCCO [Compound 109, 2-((6-cyano-7-methyl-3H-imidazo[4,5-c]pyridin-2-yl)thio)-N-(3-(2-hydroxyethoxy)-4-methoxyphenyl)acetamide]",3.26 µM,–
> 50 µM,"COc1nc(NC(=O)CSc2nc3c(C)c(C#N)ncc3[nH]2)ccc1O [Compound 96, 2-((6-cyano-7-methyl-3H-imidazo[4,5-c]pyridin-2-yl)thio)-N-(5-hydroxy-6-methoxypyridin-2-yl)acetamide]",–,–
> 50 µM,"COc1ccc(NC(=O)CSc2nc3c(C)c(C#N)ncc3[nH]2)cc1S(C)(=O)=O [Compound 103, 2-((6-cyano-7-methyl-3H-imidazo[4,5-c]pyridin-2-yl)thio)-N-(4-methoxy-3-(methylsulfonyl)phenyl)acetamide]",–,–
–,"COc1ccc(NC(=O)CSc2nc3cc(C#N)ncc3[nH]2)cc1OC [Compound 68, 2-((6-Cyano-3H-imidazo[4,5-c]pyridin-2-yl)thio)-N-(3,4-dimethoxyphenyl)acetamide]",–,"inhibiting the activity of ENPP1 (ENPP1 protein [2]; FIG. 1): effective; IC50 (ENPP1 protein [2]; Table 1, FIG. 1, read-out: IC50): 0.114 µM; inhibiting ENPP1 ability to produce mineralized nodules (Saos-2 Cells; FIG. 4, normalized against DMSO control): effective"
–,"COc1ccc(NC(=O)CSc2nc3c(C)c(C#N)ncc3[nH]2)cc1OP(=O)(O)O [Compound 107, Sodium 5-(2-((6-cyano-7-methyl-3H-imidazo[4,5-c]pyridin-2-yl)thio)acetamido)-2-methoxyphenyl phosphate]",–,"IC50 [1, 7]: 0.232 µM; IC50 ([1]; Table 5, TMP substrate, phosphate, read-out: ENPP1 (IC50 μM) TMP): 0.231 µM; IC50 [3, 8]: 0.116 µM; IC50 ([3]; Table 5, ATP substrate, phosphate, read-out: ENPP1 (IC50 μM) ATP): 0.116 µM"
1.61 µM,"COc1ccc(NC(=O)c2cnc(CSc3nc4c(C)c(C#N)ncc4[nH]3)s2)cc1O [Compound 115, sodium 5-(2-(((6-cyano-7-methyl-3H-imidazo[4,5-c]pyridin-2-yl)thio)methyl)thiazole-5-carboxamido)-2-methoxyphenolate]",0.196 µM,"IC50 [1, 7]: 1.61 µM; IC50 [3, 8]: 0.191 µM"
2.85 µM,"Cc1c(C#N)ncc2[nH]c(SCC(=O)Nc3ccc(F)c(S(N)(=O)=O)c3)nc12 [Compound 104, 2-((6-cyano-7-methyl-3H-imidazo[4,5-c]pyridin-2-yl)thio)-N-(4-fluoro-3-sulfamoylphenyl)acetamide]",–,–

SMILES,"IC50 [1, 5]","IC50 [3, 6]",also measured
"COc1ccc(NC(=O)CSc2nc3c(C)c(C#N)ncc3[nH]2)cc1N1CCC(O)CC1 [Compound 112, 2-((6-cyano-7-methyl-3H-imidazo[4,5-c]pyridin-2-yl)thio)-N-(3-(4-hydroxypiperidin-1-yl)-4-methoxyphenyl)acetamide hydrochloride]",> 50 µM,> 50 µM,–
"COc1ccc(NC(=O)CSc2nc3c(C)c(C#N)ncc3[nH]2)cc1N[C@H]1CC[C@H](N)CC1 [Compound 114, N-(3-(((1r,4r)-4-aminocyclohexyl)amino)-4-methoxyphenyl)-2-((6-cyano-7-methyl-3H-imidazo[4,5-c]pyridin-2-yl)thio)acetamide hydrogen chloride]",> 50 µM,> 50 µM,–
"COc1cc(NC(=O)CSc2nc3c(C)c(C#N)ncc3[nH]2)ccc1OP(=O)([O-])[O-].[Na+].[Na+] [Compound 108, sodium 4-(2-((6-Cyano-7-methyl-3H-imidazo[4,5-c]pyridin-2-yl)thio)acetamido)-2-methoxyphenyl phosphate]",2.04 µM,0.339 µM,"Tm (° C.) (ENPP1 protein [4]; Table 2, FIG. 7, 100 μM drug, 1.0 μg ENPP1, NT 60.05): 63.60 °C; ΔTm at 100 µM (ENPP1 protein [4]; read-out: ΔTm (° C.)): 3.54 °C; total mineralization (Saos-2 Cells; FIG. 9, mineralization components for 3 days): significant decrease; IC50 [1, 7]: 2.04 µM; IC50 [3, 8]: 0.339 µM"
